Data published in US6838084B1, “Cytotoxic T-cell epitopes of the papilloma virus l1-protein and use thereof in diagnosis and therapy” (priority 1999, dated 2005).

Experiments:
[1] = test system: CVLP-stimulated T cells; assay: Restimulation of CVLP-stimulated T cells with peptide pools, HLA A24-positive donor; assay type: cell-based, human; conditions: common to pools A and 2
Protocol: The name of the particular peptide pool with which the BLCLs were loaded is listed from left to right. “None” represents BLCLs which were incubated only with buffer.
The 20 mer peptides 1 to 51 were combined in peptide pools A to H and 1 to 7 according to the matrix
The T cells of an HLA A1-positive donor were then restimulated in 100 μl of medium at 37° C. with the peptide pools in the presence of 10 IU/ml IL2. In this connection, such amounts of peptide pools were used that for each individual peptide 1 μg/ml was added. Cells incubated only with buffer served as a negative control.
After one hour, 1 μl of Golgi Plug was added. The cells were incubated at 37° C. for a further 5 hours. The cells were then fixed and permeabilized, and stained with α-hum CD8/PE, with α-hum CD4/Cychrome and with α-hum γ-interferon/FITC. The cells were examined in a FACScan calibur with respect to their label and the data were analyzed with the aid of Cellquest software.
Furthermore, the T cells of an HLA A24-positive donor were restimulated with the peptide pools as above and analyzed.

[2] = test system: BLCL cells of an HLA A24-positive donor; assay: Lysis of BLCL cells loaded with peptide 9 (51Cr release); assay type: cell-based, human
Protocol: The target cells were lysed by T cells stimulated with peptides 1-43 (=effector cells) . […] The % values were calculated according to the formula given in Example 7.
BLCL cells of an HLA A24-positive donor were incubated with […] at 37° C. for one hour, washed three times with medium and divided into 2 aliquots. 10 μg/ml of peptide 9 were added to one aliquot of the cells, and the other aliquot served as a negative control in the absence of a peptide. Subsequently, in each case 2000 cells (=target cells). were added to increasing amounts of T cells (=effector cells) in a total volume of 150 μl. The T cells had been stimulated previously over 5 weeks with a mixture of 43 peptides (peptides 1-43, 1 μg/ml each). Reaction mixtures for spontaneous and maximum cell lysis were set up in parallel. For spontaneous lysis, target cells which were incubated in medium were used, and for maximum lysis target cells which were incubated with 0.5% Triton were used. The mixtures were incubated at 37° C. for 5 h. 50 μl of mixture supernatant were applied to Luma plates and dried at room temperature overnight. On the following morning, the amount of radioactive ^51Cr was determined with the aid of a Canberra-Packerd B-plate counter (counts) and compared to the maximal lysed cells of the Triton mixture. The percentage of specific lysis was determined according to the formula: x=100·(counts−spontaneous counts)/(maximal counts−spontaneous counts).

SFYNPDTQRLVWACVGVEVG [Peptide 9]
peptide responsible for restimulation, deduced from pool matrix [1]: in all probability responsible for restimulation of CVLP-stimulated T cells
lysis of peptide-loaded BLCL target cells by T cells (51Cr release) ([2]; 10 μg/ml peptide, effector T cells stimulated 5 weeks with peptides 1-43, 5 h, FIG. 8): lyse BLCL cells loaded with peptide 9 effectively
Epitop-Information (HLA restriction) ([2]; Table 2): HLA A24 restr.
Epitop-Information (epitope type) ([2]; Table 2): cytotoxic epitope
epitope classification ([2]; conclusion from FIG. 8): HLA A24-restricted cytotoxic T-cell epitope
